Assays:
[1] = ^18F-labeled PSMA compounds; cited from earlier work
PSMA = target: T1, PSMA (Homo sapiens, UniProt Q04609); assay: Competitive binding assay against ^125I-MIP-1095 in 22Rv1 cells
T1 construct: host or cells: 22Rv1 human prostate cancer cells (intact cells)
Description: The 22Rv1 cells (1 × 10^6 cells/well, 48-well plate) were washed with phosphate-buffered saline (PBS), and the culture medium was substituted with RPMI-1640 medium containing 1% bovine serum albumin. The cells were incubated for 1 h at 37 °C and 5% CO2 with unlabeled cudotadipep or cunotadipep (1.00 × 10^−4–1.00 × 10^−10 M) or 0.09–0.1 nM ^125I-(S)-2-(3-((S)-1-carboxy-5-(3-(4-iodophenyl)ureido)pentyl)ureido)pentanedioic acid (^125I-MIP-1095). The cells were washed twice in cold PBS and collected via centrifugation (2000 rpm, 5 min). Radioactivity was measured using 2480 WIZARD2 gamma counter (Perkin Elmer, Waltham, MA, USA). IC50 was calculated using Microsoft Excel and converted to Ki, using the Cheng–Prusoff equation [21].

PC3-PIP (PSMA+) cells = assay: Cell uptake in PC3-PIP cells; format: cell-based, human; conditions: as given in the abstract
Description: PC3-PIP or PC3-flu cells (1 × 10^6) were mixed with 3.7 MBq (100 μCi) of ^64Cu-cudotadipep or ^64Cu-cunotadipep and incubated at 37 °C and 5% CO2 for 2 h. Following incubation, the cells were washed with PBS twice and collected via centrifugation (2000 rpm, 5 min). Radioactivity was measured using 2480 WIZARD2 gamma counter (Perkin Elmer, Waltham, MA, USA). Percent (%) uptake was calculated using the ratio between the radioactivity of the cells and treated radioactivity.

T1 sequence (Q04609 whole entry): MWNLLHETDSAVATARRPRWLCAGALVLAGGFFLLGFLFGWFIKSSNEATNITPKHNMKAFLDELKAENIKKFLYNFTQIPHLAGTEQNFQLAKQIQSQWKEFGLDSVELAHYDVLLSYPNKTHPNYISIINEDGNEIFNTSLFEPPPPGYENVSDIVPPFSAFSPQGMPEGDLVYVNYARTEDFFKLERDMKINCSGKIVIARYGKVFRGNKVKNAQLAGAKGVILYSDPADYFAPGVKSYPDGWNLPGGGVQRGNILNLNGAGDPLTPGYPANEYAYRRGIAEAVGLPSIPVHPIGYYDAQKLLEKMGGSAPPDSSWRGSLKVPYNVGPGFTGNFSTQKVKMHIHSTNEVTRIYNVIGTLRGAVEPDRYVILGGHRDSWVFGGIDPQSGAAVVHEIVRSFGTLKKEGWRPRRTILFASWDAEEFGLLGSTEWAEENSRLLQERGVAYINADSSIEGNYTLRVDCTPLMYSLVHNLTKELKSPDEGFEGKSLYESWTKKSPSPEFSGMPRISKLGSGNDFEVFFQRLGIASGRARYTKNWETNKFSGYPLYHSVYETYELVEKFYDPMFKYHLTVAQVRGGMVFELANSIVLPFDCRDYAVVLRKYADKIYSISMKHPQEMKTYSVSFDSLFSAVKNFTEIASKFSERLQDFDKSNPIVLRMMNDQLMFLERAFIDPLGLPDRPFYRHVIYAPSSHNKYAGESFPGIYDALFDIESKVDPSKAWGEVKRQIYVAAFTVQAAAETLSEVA

Compound	effective dose [1]	Ki (PSMA; 22Rv1 cells, converted from IC50 with the Cheng–Prusoff equation using Kd of MIP-1095) [nM]	IC50 (PSMA; cold forms, PSMA-expressing 22Rv1 cells, 1 h, 37 °C) [nM]	cellular uptake (PC3-PIP (PSMA+) cells) [%/1 × 10^6 cells]
O=C(O)CC[C@H](NC(=O)N[C@@H](CCCCNC(=O)c1ccc([18F])nc1)C(=O)O)C(=O)O [^18F-DCFPyL]	1.65 × 10^−2 mSv/MBq	–	–	–
O=C([O-])CN1CCN(CC(=O)[O-])CCN(CC(=O)N[C@@H](CCCCNC(=O)CCCc2ccc(I)cc2)C(=O)NCCOCCOCC(=O)N(CCCC[C@H](NC(=O)N[C@@H](CCC(=O)O)C(=O)O)C(=O)O)CC(=O)O)CC1.[Cu+2] [Cu-cunotadipep]	–	2.17 ± 0.25	5.42 ± 0.64	6.02 ± 0.05
O=C(O)CC[C@H](NC(=O)N[C@@H](CCCCNC(=O)[C@H](Cc1ccc2ccccc2c1)NC(=O)c1ccc(CNC(=O)[C@H](CCC(=O)O)NC(=O)[C@H](CCC(=O)O)NC(=O)c2ccc([18F])nc2)cc1)C(=O)O)C(=O)O [^18F-PSMA-1007]	2.20 × 10^−2 mSv/MBq	–	–	–
O=C([O-])CN(CCN(CC(=O)[O-])Cc1cc(CCC(=O)NCCCCCC(=O)NCCCC[C@H](NC(=O)N[C@@H](CCC(=O)O)C(=O)O)C(=O)O)ccc1O)Cc1cc(CCC(=O)O)ccc1O.[18F-].[Al+3] [^18F-PSMA-11]	1.28 × 10^−2 mSv/MBq	–	–	–
